Assay results taken from patent US20220313651A1, “INHIBITORS OF ZIKA VIRUS INFECTION” (priority 2019, published 2022).

Legend:
[1] = system: nine additional ZIKV strains; assay: Plaque reduction inhibition assay, nine additional ZIKV strains taken together; assay type: cell-based; conditions: Zika virus, Vero C1008; range over nine additional strains, Vero E6 cells; read-out: IC50 values against all nine ZIKV strains tested
Protocol: A plaque reduction inhibition assay was carried out to measure the inhibitory activity of Z-medicaments against infections of ZIKV and DENV. […] The compound-virus mixtures were then transferred to Vero E6 cells (10^5/well) and incubated at 37° C. for 1 h.
The identified Z-medicaments were further studied for their broad-spectrum activity against nine additional ZIKV strains, including those isolated from different hosts, namely humans, mosquitos, and rhesus macaques, at different time periods (1947-2016) in different countries, including Mexico, Panama, Columbia, Honduras, Puerto Rico, Thailand, Nigeria, and Uganda.

[2] = target: T1, binding between ZIKV EDIII and EDIII-specific mAb Z004 (Zika virus, UniProt Q32ZE1, D679E/I627V/V603I/V629A); conditions: ELISA; EDIII 1.5 μg/ml, mAb 0.5 μg/ml; read-out: IC50, blocking EDIII-mAb binding, Z004
T1 construct: human Fc (C)
Protocol: Binding of compounds (NPs) to ZIKV full-length E (FIG. 3A), EDIII (FIG. 3B), and NS2B-NS3 (FIG. 3C) proteins, was detected by ELISA. The percent binding was reported in the presence or absence of serially diluted NPs using the formula (1-[E/EDIII-NP]/[E/EDIII])×100 (for E/EDIII binding) or (1-[NS2B-NS3-NP]/[NS2B-NS3])×100 (for NSEB-NS3 binding). […] The concentrations of ZIKV EDIII and mAbs were 1.5 and 0.5 μg/ml, respectively. […] The concentrations of substrate (Bz-Nle-Lys-Lys-Arg-AMC) and ZIKV NS2B-NS3 protein were 4 μM and 1 μg/ml, respectively. The percent inhibition of protease activity was calculated in the presence or absence of serially diluted compounds using the formula (1-[NS2B-NS3-substrate-NP]/[NS2B-NS3-substrate])×100. The IC50 values were calculated based on the percent inhibition. The data are expressed as mean±s.e.m. (n=4).
ELISA was also used to determine the ability of ST087010 in inhibition of the binding between ZIKV EDIII and EDIII-specific human mAbs (SMZAb5, ZKA64-LALA, ZV-67, or Z004) or EDI/II-specific human mAb (ZKA78) control.

[3] = system: DENV-2 human strain V594; assay: DENV-2 infection in Ifnar1-/- mice, viral titers by flow cytometry; assay type: in vivo; conditions: 20 mg/kg i.p. 12 h before and 6, 24, 48 h after infection; DENV-2 V594 2×10^6 PFU; 3 dpi; vs gossypol and DMSO
Text: FIG. 11A is a schematic diagram of experimental procedures. […] FIG. 11B depicts representative images of DENV titers in brain, kidney, heart, and sera analyzed by flow cytometry at 3 dpi. C6/36 cells with or without DENV-2 infection were used as positive and negative controls, respectively. The percentage of infected cells to the total number of cells is shown in each figure. FIG. 11C depicts the detection of DENV titers in challenged mouse tissues and sera at 3 dpi. […] The data are presented as mean±s.e.m of duplicate wells (n=2). The experiments were repeated twice with similar results.
ST087010 was evaluated for protection against DENV-2 infection in susceptible Ifnar1^−/− mice. […] Three days after infection, sera and tissues, including brain, kidney, and heart, were collected, and detected for DENV infection using a flow cytometry assay (as described below). […] DENV titers in tissues or sera were determined from ˜20 mg of tissue, or 25 μl of sera, and used for subsequent flow cytometry analysis.
A flow cytometry assay was carried out to analyze DENV-2 titers in the infected mouse tissue supernatants and sera collected above. […] Viral titers (infectious units/ml or infectious units/g) were calculated using the formula: ((% of infected cells)×(total number of cells)×(dilution factor))/(amount of inoculum added to cells). […]

T1 sequence (Q32ZE1 584-695 V603I/I627V/V629A/D679E): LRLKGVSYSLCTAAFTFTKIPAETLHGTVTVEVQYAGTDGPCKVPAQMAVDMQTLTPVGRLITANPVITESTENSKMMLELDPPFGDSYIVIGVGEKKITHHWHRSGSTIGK

SMILES	IC50 [1] [nM]	IC50 [2] [µM]	DENV-2 viral titer (number of infected cells) in brain, kidney, heart and sera [3]
Cc1cc2c(C(C)C)c(O)c(O)c(C=O)c2c(O)c1-c1c(C)cc2c(C(C)C)c(O)c(O)c(C=O)c2c1O [Gossypol, gossypol]	210 to 4310		
Cc1cc2c(C(C)C)c(O)c(O)c(/C=N/n3c(=O)[nH][nH]c3=O)c2c(O)c1-c1c(C)cc2c(C(C)C)c(O)c(O)c(/C=N/n3c(=O)[nH][nH]c3=O)c2c1O [ST087010]		44.5	significantly reduced number of infected cells
